Experiments:
[1] = biological target: T1, ArsC-Vmh2; assay type: binding, Thermus thermophilus; details: chimera immobilised on gold; 50 mM Tris-HCl pH 7.5, 60 °C, 1 h incubation; detection in 1 M HCl; read-out: KAsIII (converted)
T1 construct: single-chain fusion: TtArsC (N-terminal), 15-residue flexible linker, Vmh2 of Pleurotus ostreatus, thrombin site LVPRGS, C-terminal His-tag; with Hydrophobin Vmh2 (Pleurotus ostreatus)

[2] = biological target: T2, Vmh2-ArsC; assay type: binding, Thermus thermophilus; details: chimera immobilised on gold; 50 mM Tris-HCl pH 7.5, 60 °C, 1 h incubation; detection in 1 M HCl; read-out: KAsIII (converted)
T2 construct: single-chain fusion: Vmh2 of Pleurotus ostreatus (N-terminal), 15-residue flexible linker, TtArsC, thrombin site LVPRGS, C-terminal His-tag; with Hydrophobin Vmh2 (Pleurotus ostreatus)

`O=[As]O` [As(III)] was tested, and the Kd [1] was 1540 µM and the Kd [2] was 833 µM.
